{"source": "patent US12150926B2", "about": "(SICHUAN JIUZHANG BIOLOGICAL SCIENCE AND TECHNOLOGY CO., LTD., priority 2018, dated 2024)", "key": {"[1]": {"test_system": "transplanted tumor in S180 sarcoma-bearing KM mice", "assay": "In vivo inhibitory effect of chlorogenic acid on S180 sarcoma transplantation in KM mice (Experimental example 1)", "set-up": "species or system mouse; key to growth volume of transplanted tumor: V = 0.52 × L × W² (long × shortest diameter²), in cm³", "details": "for growth volume of transplanted tumor: x ± s, n = 10; for inhibitory effect on the growth volume of transplanted tumors (in words): at different time points, compared with negative control group, chlorogenic acid systemic, local and systemic+local groups 30 mg/kg, ADM 2 mg/kg; for Tumor inhibiton rate: from tumor weight vs negative group; for Tumor weight: at termination", "procedure": "(§1) KM mice, half male and half female, weighing 17-24 g.\nS180 cell lines were mouse sarcoma cells, and suspendedly grew in DH medium, containing 20% calf serum, 1 mmol/L glutamine, 100 U·ml^−1 penicillin, and 100 μg·ml^−1 streptomycin, then cultured in 37° C. 5% CO2, saturated humidity incubator. The medium was changed every 2-3 days for passage.\nS180 cells in the logarithmic growth phase were harvested, centrifuged at 1000 rpm for 5 min, washed twice, and the number of viable cells was counted by trypan blue staining. The cells were inoculated into the abdominal cavity of KM mice as soon as possible, and these mice were used as breeding mice. 2) In vivo experiment The ascites was extracted from 7 to 10 days, and the number of cells was adjusted to (about 1×10^6 cells) after dilution. The cell suspension in ascites was inoculated subcutaneously in the axillary of the left forelimb of the mice at 0.2 ml/animal.\n(§2) Negative group: intraperitoneally injected, once a day, receiving an equal volume of normal saline. On the 5th day after inoculation, the tumor volume was measured (V=0.52×L (the long diameter of the transplanted tumor)×W^2 (the shortest diameter of the transplanted tumor)), and the mice were weighed every three days. The experiment was terminated when the average tumor size in the negative group was more than 1 g (the tumor volume was about […]). The mice were sacrificed by cervical vertebra luxation and weighed, the tumor was removed, and the tumor inhibitory rate was calculated. Tumor inhibitory rate %=[1−(average tumor weight in drug group/average tumor weight in negative group)]×100%."}, "[2]": {"test_system": "transplanted tumor in S180 sarcoma-bearing KM mice", "assay": "In vivo inhibitory effect of chlorogenic acid composition on S180 sarcoma transplantation in KM mice (Experimental example 2)", "set-up": "species or system mouse; key to growth volume of transplanted tumor: tumor volume V=0.52×L×W² (long × shortest diameter²)", "details": "for inhibitory effect on the growth volume of transplanted tumors (in words): at different time points, compared with negative control group, i.p. once a day, 30 mg/kg (ADM 2 mg/kg); for Tumor weight / Tumor inhibition rate / growth volume of transplanted tumor: intraperitoneally, once a day; for Tumor weight: at termination; for Tumor inhibition rate: from tumor weight vs negative group; for growth volume of transplanted tumor: x ± s, n = 10", "procedure": "S180 sarcoma transplantation in KM mice\nas §1\nS180 cell lines were mouse sarcoma cells, and suspendedly grew in DH medium, containing 20% calf serum, 1 mmol/L glutamine, 100 U·ml^−1 penicillin, and 100 μg·ml^−1 streptomycin, then cultured in 37° C., 5% CO2, saturated humidity incubator. The medium was changed every 2-3 days for passage.\nS180 cells in the logarithmic growth phase were harvested, centrifuged at 1000 rpm for 5 min, washed twice, and the number of viable cells was counted by trypan blue staining. The cells were inoculated into the abdominal cavity of KM mice as soon as possible, and these mice were used as breeding mice.\nThe ascites was extracted from 7 to 10 days, and the number of cells was adjusted to (about 1×10^6 cells) after dilution. The cell suspension in ascites was inoculated subcutaneously in the axillary of the left forelimb of the mice at 0.2 ml/animal. […] Coumaroylquinic acid group: intraperitoneally injected, once a day, at a dose of 30 mg·kg^−1.\nNegative group: intraperitoneally injected, once a day, receiving an equal volume of normal saline.\nas §2, with “On” for “Negative group: intraperitoneally injected, once a day, receiving an equal volume of normal saline. On”"}, "[3]": {"details": "systemic + local administration: i.v. once a day 30 mg/kg plus s.c. peri-lesion once every 5 days 30 mg/kg"}, "[4]": {"details": "time after inoculation 74, 30 mg/kg"}, "[5]": {"details": "time after inoculation 134 [sic], 30 mg/kg"}, "[6]": {"details": "time after inoculation printed 94, 30 mg/kg"}, "[7]": {"details": "time after inoculation printed 114, 30 mg/kg"}}, "data": [{"compound": "COc1cccc2c1C(=O)c1c(O)c3c(c(O)c1C2=O)C[C@@](O)(C(=O)CO)C[C@@H]3O[C@H]1C[C@H](N)[C@H](O)[C@H](C)O1", "note": "[ADM, adriamycin, reference compound]", "values": [{"measurement": "growth volume of transplanted tumor", "setting": "[1]; 5 d after inoculation, intraperitoneally, once a day, 2 mg/kg", "value": "0.096 ± 0.041"}, {"measurement": "growth volume of transplanted tumor", "setting": "[1]; 9 d after inoculation, intraperitoneally, once a day, 2 mg/kg", "value": "0.199 ± 0.080"}, {"measurement": "growth volume of transplanted tumor", "setting": "[1]; 11 d after inoculation, intraperitoneally, once a day, 2 mg/kg", "value": "0.333 ± 0.159"}, {"measurement": "growth volume of transplanted tumor", "setting": "[1]; 13 d after inoculation, intraperitoneally, once a day, 2 mg/kg", "value": "0.478 ± 0.241"}, {"measurement": "inhibitory effect on the growth volume of transplanted tumors (in words)", "setting": "[1]", "value": "significant inhibitory effect"}, {"measurement": "Tumor inhibiton rate", "setting": "[1]; intraperitoneally, once a day, 2 mg/kg, listed as Adriamycin (ADM), 2 mg/kg", "value": 56.95, "unit": "%"}, {"measurement": "inhibitory effect on the growth volume of transplanted tumors (in words)", "setting": "[2]", "value": "significant inhibitory effect"}, {"measurement": "Tumor weight", "setting": "[2]; 2 mg/kg", "value": "1.132 ± 0.552", "unit": "g"}, {"measurement": "Tumor inhibition rate", "setting": "[2]; 2 mg/kg, listed as Adriamycin (ADM), 2 mg/kg", "value": 53.38, "unit": "%"}, {"measurement": "growth volume of transplanted tumor", "setting": "[2]; time after inoculation 74, 2 mg/kg", "value": "0.171 ± 0.082"}, {"measurement": "growth volume of transplanted tumor", "setting": "[2]; time after inoculation 134 [sic], 2 mg/kg", "value": "0.492 ± 0.204"}, {"measurement": "growth volume of transplanted tumor", "setting": "[2]; time after inoculation printed 54, 2 mg/kg", "value": "0.116 ± 0.073"}, {"measurement": "growth volume of transplanted tumor", "setting": "[2]; time after inoculation printed 114, 2 mg/kg", "value": "0.363 ± 0.128"}]}, {"compound": "O=C(/C=C/c1ccc(O)c(O)c1)O[C@@H]1C[C@](O)(C(=O)O)C[C@@H](O)[C@H]1O", "note": "[Chlorogenic acid]", "values": [{"measurement": "growth volume of transplanted tumor", "setting": "[1]; 5 d after inoculation, local administration: subcutaneously into periphery of in situ lesion, once a day, 30 mg/kg", "value": "0.152 ± 0.028"}, {"measurement": "growth volume of transplanted tumor", "setting": "[1]; 5 d after inoculation, systemic administration: intravenously, once a day, 30 mg/kg", "value": "0.141 ± 0.032"}, {"measurement": "growth volume of transplanted tumor", "setting": "[1]; 7 d after inoculation, local administration: subcutaneously into periphery of in situ lesion, once a day, 30 mg/kg", "value": "0.221 ± 0.047"}, {"measurement": "growth volume of transplanted tumor", "setting": "[1]; 7 d after inoculation, systemic + local administration: i.v. once a day 30 mg/kg plus s.c. peri-lesion once every 5 days 30 mg/kg", "value": "0.186 ± 0.065"}, {"measurement": "growth volume of transplanted tumor", "setting": "[1]; 7 d after inoculation, systemic administration: intravenously, once a day, 30 mg/kg", "value": "0.205 ± 0.061"}, {"measurement": "growth volume of transplanted tumor", "setting": "[1]; 9 d after inoculation, local administration: subcutaneously into periphery of in situ lesion, once a day, 30 mg/kg", "value": "0.311 ± 0.064"}, {"measurement": "growth volume of transplanted tumor", "setting": "[1]; 9 d after inoculation, systemic + local administration: i.v. once a day 30 mg/kg plus s.c. peri-lesion once every 5 days 30 mg/kg", "value": "0.243 ± 0.066"}, {"measurement": "growth volume of transplanted tumor", "setting": "[1]; 9 d after inoculation, systemic administration: intravenously, once a day, 30 mg/kg", "value": "0.289 ± 0.082"}, {"measurement": "growth volume of transplanted tumor", "setting": "[1]; 11 d after inoculation, local administration: subcutaneously into periphery of in situ lesion, once a day, 30 mg/kg", "value": "0.535 ± 0.078"}, {"measurement": "growth volume of transplanted tumor", "setting": "[1]; 11 d after inoculation, systemic + local administration: i.v. once a day 30 mg/kg plus s.c. peri-lesion once every 5 days 30 mg/kg", "value": "0.344 ± 0.127"}, {"measurement": "growth volume of transplanted tumor", "setting": "[1]; 11 d after inoculation, systemic administration: intravenously, once a day, 30 mg/kg", "value": "0.504 ± 0.158"}, {"measurement": "growth volume of transplanted tumor", "setting": "[1]; 13 d after inoculation, local administration: subcutaneously into periphery of in situ lesion, once a day, 30 mg/kg", "value": "0.651 ± 0.154"}, {"measurement": "growth volume of transplanted tumor", "setting": "[1]; 13 d after inoculation, systemic + local administration: i.v. once a day 30 mg/kg plus s.c. peri-lesion once every 5 days 30 mg/kg", "value": "0.446 ± 0.157"}, {"measurement": "growth volume of transplanted tumor", "setting": "[1]; 13 d after inoculation, systemic administration: intravenously, once a day, 30 mg/kg", "value": "0.593 ± 0.213"}, {"measurement": "inhibitory effect on the growth volume of transplanted tumors (in words)", "setting": "[1]", "value": "significant inhibitory effect"}, {"measurement": "Tumor weight", "setting": "[1]; local administration: s.c. peri-lesion, once a day, 30 mg/kg", "value": "1.324 ± 0.239", "unit": "g"}, {"measurement": "Tumor inhibiton rate", "setting": "[1]; local administration: s.c. peri-lesion, once a day, 30 mg/kg, 30 mg/kg", "value": 41.36, "unit": "%"}, {"measurement": "Tumor weight", "setting": "[1]; [3]", "value": "0.957 ± 0.308", "unit": "g"}, {"measurement": "Tumor inhibiton rate", "setting": "[1]; [3]", "value": 57.62, "unit": "%"}, {"measurement": "Tumor weight", "setting": "[1]; systemic administration: intravenously, once a day, 30 mg/kg", "value": "1.183 ± 0.215", "unit": "g"}, {"measurement": "Tumor inhibiton rate", "setting": "[1]; systemic administration: intravenously, once a day, 30 mg/kg, 30 mg/kg", "value": 47.61, "unit": "%"}, {"measurement": "inhibitory effect on the growth volume compared with the systemic administration group and the local administration group (in words)", "setting": "[1]; systemic+local administration group", "value": "better inhibitory effect"}, {"measurement": "inhibitory effect on the growth volume of transplanted tumors (in words)", "setting": "[2]", "value": "significant inhibitory effect"}, {"measurement": "Tumor inhibition rate", "setting": "[2]; 30 mg/kg, 30 mg/kg", "value": 48.64, "unit": "%"}, {"measurement": "growth volume of transplanted tumor", "setting": "[2]; [4]", "value": "0.242 ± 0.053"}, {"measurement": "growth volume of transplanted tumor", "setting": "[2]; [5]", "value": "0.811 ± 0.142"}, {"measurement": "growth volume of transplanted tumor", "setting": "[2]; [6]", "value": "0.326 ± 0.071"}, {"measurement": "growth volume of transplanted tumor", "setting": "[2]; [7]", "value": "0.453 ± 0.093"}]}, {"compound": "coumaroylquinic acid", "values": [{"measurement": "inhibitory effect on the growth volume of transplanted tumors (in words)", "setting": "[2]", "value": "didn't show inhibitory effect"}, {"measurement": "Tumor weight", "setting": "[2]; 30 mg/kg", "value": "2.303 ± 0.475", "unit": "g"}, {"measurement": "Tumor inhibition rate", "setting": "[2]; 30 mg/kg, 30 mg/kg", "value": 5.15, "unit": "%"}, {"measurement": "Tumor inhibition rate", "setting": "[2]; 30 mg/kg, listed as coumaroylquinic acid, 30 mg/kg", "value": 5, "unit": "%"}, {"measurement": "growth volume of transplanted tumor", "setting": "[2]; [4]", "value": "0.364 ± 0.074"}, {"measurement": "growth volume of transplanted tumor", "setting": "[2]; [5]", "value": "1.106 ± 0.137"}, {"measurement": "growth volume of transplanted tumor", "setting": "[2]; time after inoculation printed 54, 30 mg/kg", "value": "0.209 ± 0.058"}, {"measurement": "growth volume of transplanted tumor", "setting": "[2]; [6]", "value": "0.573 ± 0.093"}, {"measurement": "growth volume of transplanted tumor", "setting": "[2]; [7]", "value": "0.898 ± 0.075"}]}]}
